# The supplement of paper PMC11061612
# Assays:
# Experiment in all cases: Bliss excess, mean over the matrix (fraction); higher = more synergy
# [1] = test system: RPMI-8402 (T-Lymphoblastic Leukemia)
# Procedure, shortened: (§1)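 Cell lines grown in DMEM/F12 or RPMI with 10% FBS were plated in 1536-well plates and held 24 hours at 37°C, 5% CO2 before 72 hours of exposure to two-drug dose matrices, with DMSO typically at 0.2%. CellTiter-Glo 2.0 luminescence gave viability, which was converted to inhibition. Vehicle wells were set to 0 and blank wells to 1. Combination Emax is the second-highest inhibition in the matrix, and Bliss excess is the observed combination effect minus the expected EA + EB − EA·EB, where EA and EB are the single-agent effects.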
# [2] = test system: TOV-21G (Ovarian Carcinoma)
# Procedure, shortened: as §1
# [3] = test system: BC-1 (B-Cell Non-Hodgkin's Lymphoma)
# Procedure, shortened: as §1
# [4] = test system: SNU-1 (Gastric Carcinoma)
# Procedure, shortened: as §1
# [5] = test system: NCI-H1648 (Lung Adenocarcinoma)
# Procedure, shortened: as §1
# [6] = test system: NCI-H2023 (Non-Small Cell Lung Carcinoma)
# Procedure, shortened: as §1
# [7] = test system: JURL-MK1 (Chronic Myelogenous Leukemia)
# Procedure, shortened: as §1
# [8] = test system: RS4-11 (B-Lymphoblastic Leukemia)
# Procedure, shortened: as §1
# [9] = test system: Daudi (Burkitt's Lymphoma)
# Procedure, shortened: as §1
# [10] = test system: NCI-H1944 (Lung Adenocarcinoma)
# Procedure, shortened: as §1
# [11] = test system: NCI-H2170 (Squamous Cell Lung Carcinoma)
# Procedure, shortened: as §1
# DK-MG (Glioblastoma) = test system: DK-MG (Glioblastoma)
# Procedure, shortened: as §1
# [12] = test system: IGROV-1 (Ovarian Carcinoma)
# Procedure, shortened: as §1
# [13] = test system: MDA-MB-175-VII (Breast Carcinoma)
# Procedure, shortened: as §1
# [14] = test system: COR-L105 (Lung Adenocarcinoma)
# Procedure, shortened: as §1
# [15] = test system: C2BBe1 (Colorectal Carcinoma)
# Procedure, shortened: as §1
# [16] = test system: HT-3 (Cervical Carcinoma)
# Procedure, shortened: as §1
# SK-MEL-24 (Melanoma) = test system: SK-MEL-24 (Melanoma)
# Procedure, shortened: as §1
# NCI-H2452 (Mesothelioma) = test system: NCI-H2452 (Mesothelioma)
# Procedure, shortened: as §1
# [17] = test system: SW1463 (Colorectal Carcinoma)
# Procedure, shortened: as §1
Structure (SMILES),Bliss excess [1],Bliss excess [2],Bliss excess [3],Bliss excess [4],Bliss excess [5],Bliss excess [6],Bliss excess [7],Bliss excess [8],Bliss excess [9],Bliss excess [10],Bliss excess [11],Bliss excess (DK-MG (Glioblastoma)),Bliss excess [12],Bliss excess [13],Bliss excess [14],Bliss excess [15],Bliss excess [16],Bliss excess (SK-MEL-24 (Melanoma)),Bliss excess (NCI-H2452 (Mesothelioma)),Bliss excess [17]
"Cc1nc(Nc2ncc(C(=O)Nc3c(C)cccc3Cl)s2)cc(N2CCN(CCO)CC2)n1 [Dasatinib] + CC(=O)Nc1cccc(-n2c(=O)n(C3CC3)c(=O)c3c(Nc4ccc(I)cc4F)n(C)c(=O)c(C)c32)c1 [Trametinib] (first compound max 2 µM, 7x7, partner max 1 µM)",0.0053,0.0199,0.0858,-0.0263,0.0135,-0.0228,-0.0029,-0.0685,-0.0221,0.0343,-0.0593,-0.0685,-0.0554,-0.132,0.0567,0.0323,-0.0594,0.141,-0.0671,-0.0659
"COc1cc2ncnc(Nc3ccc(F)c(Cl)c3)c2cc1OCCCN1CCOCC1 [Gefitinib] + CC(C)n1c(=O)n(C)c2cnc3cc(F)c(-c4ccc(OCCCN5CCCCC5)nc4)cc3c21 [AZD1390] (first compound max 10 µM, 7x7, partner max 0.3 µM)",-0.0801,-0.084,-0.0279,-0.0701,-0.0521,-0.0463,-0.0586,-0.0484,-0.0688,-0.0668,-0.0867,-0.0817,-0.0824,-0.0191,-0.0374,-0.029,-0.0456,-0.0831,-0.108,0.0109
"COc1cc2c(cc1OCCCCCOc1cc3c(cc1OC)C(=O)N1C=C(C)C[C@H]1C=N3)N=C[C@@H]1CC(C)=CN1C2=O [SG3199] + O=C(c1cc(Cc2n[nH]c(=O)c3ccccc23)ccc1F)N1CCN(C(=O)C2CC2)CC1 [Olaparib] (first compound max 0.001 µM, 7x7, partner max 10 µM)",-0.0259,-0.0322,-0.0102,0.0755,-0.0282,-0.0562,-0.0007,0.0338,-0.0273,-0.0259,-0.009,-0.0446,-0.0101,-0.0489,-0.0371,-0.0188,-0.0306,-0.0576,-0.117,-0.0393
"C[C@@H](c1ccc2nccn2c1)n1nnc2ncc(-c3cnn(C)c3)nc21 [Savolitinib] + CC1(C)CCC(CN2CCN(c3ccc(C(=O)NS(=O)(=O)c4ccc(NCC5CCOCC5)c([N+](=O)[O-])c4)c(Oc4cnc5[nH]ccc5c4)c3)CC2)=C(c2ccc(Cl)cc2)C1 [Venetoclax] (first compound max 1 µM, 7x7, partner max 1 µM)",-0.0218,-0.0577,0.0031,-0.0821,-0.0253,-0.0161,-0.0679,-0.0566,-0.0988,-0.0328,-0.0336,-0.119,-0.04,-0.013,-0.0423,-0.0759,-0.0486,-0.0805,-0.0714,-0.0339
"C[C@@H](c1ccc2nccn2c1)n1nnc2ncc(-c3cnn(C)c3)nc21 [Savolitinib] + Cc1c2c(nn1C)CSCc1cc(n(C)n1)CSc1cc(c3ccccc3c1)OCCCc1c(C(=O)O)n(C)c3c-2c(Cl)ccc13 [AZD5991] (first compound max 1 µM, 7x7, partner max 1 µM)",-0.132,-0.0111,-0.0076,0.0005,0.0216,-0.0323,-0.0037,-0.0406,-0.0126,-0.0112,-0.0199,-0.0226,-0.0303,-0.0244,-0.0086,-0.0455,-0.0255,-0.0519,-0.109,-0.0109
